Measured values as given in ChEMBL document CHEMBL3608244, “Left-Hand Side Exploration of Novel Bacterial Topoisomerase Inhibitors to Improve Selectivity against hERG Binding” (ACS Med Chem Lett, 2015).
Values after ≈ are worked out from the molar mass of the structure shown.

Key:
[1] = test system: Mycobacterium tuberculosis; assay: Antimycobacterial activity against Mycobacterium tuberculosis H37Rv ATCC 27294 incubated for 7 days by microdilution method; format: functional; conditions: H37Rv ATCC 27294, 168 h
[2] = target: Voltage-gated inwardly rectifying potassium channel KCNH2 (Homo sapiens, UniProt Q12809)
Description: Inhibition of human ERG by IonWorks assay

[3] = target: DNA gyrase subunit A/DNA gyrase subunit B (Mycobacterium tuberculosis (strain ATCC 25618 / H37Rv), UniProt P9WG45+P9WG47); assay: Inhibition of Mycobacterium tuberculosis H37Rv DNA gyrase assessed as supercoiling of pBR322 DNA after 90 mins by agarose gel electrophoresis method
[4] = test system: Caco-2; assay: Permeability across human Caco2 cells; format: ADME, cell-based
[5] = Solubility of the compound; format: physicochemical
[6] = test system: Mycobacterium tuberculosis; assay: Antimycobacterial activity against Mycobacterium tuberculosis infected in human THP1 cells assessed as bacteria killing effect; format: functional, organism-based; conditions: THP-1
[7] = test system: Mycobacterium tuberculosis; assay: Antimycobacterial activity against Mycobacterium tuberculosis in acute mouse model of tuberculosis assessed as bacteria killing effect at 100 mg/kg, po bid administered for 10 days relative to early control; format: functional
[8] = test system: Mycobacterium tuberculosis; assay: Antimycobacterial activity against Mycobacterium tuberculosis infected in human THP1 cells assessed as bacteria killing effect at 1 to 16 ug/ml; format: functional, THP-1

Chain of Voltage-gated inwardly rectifying potassium channel KCNH2 (Q12809 whole entry): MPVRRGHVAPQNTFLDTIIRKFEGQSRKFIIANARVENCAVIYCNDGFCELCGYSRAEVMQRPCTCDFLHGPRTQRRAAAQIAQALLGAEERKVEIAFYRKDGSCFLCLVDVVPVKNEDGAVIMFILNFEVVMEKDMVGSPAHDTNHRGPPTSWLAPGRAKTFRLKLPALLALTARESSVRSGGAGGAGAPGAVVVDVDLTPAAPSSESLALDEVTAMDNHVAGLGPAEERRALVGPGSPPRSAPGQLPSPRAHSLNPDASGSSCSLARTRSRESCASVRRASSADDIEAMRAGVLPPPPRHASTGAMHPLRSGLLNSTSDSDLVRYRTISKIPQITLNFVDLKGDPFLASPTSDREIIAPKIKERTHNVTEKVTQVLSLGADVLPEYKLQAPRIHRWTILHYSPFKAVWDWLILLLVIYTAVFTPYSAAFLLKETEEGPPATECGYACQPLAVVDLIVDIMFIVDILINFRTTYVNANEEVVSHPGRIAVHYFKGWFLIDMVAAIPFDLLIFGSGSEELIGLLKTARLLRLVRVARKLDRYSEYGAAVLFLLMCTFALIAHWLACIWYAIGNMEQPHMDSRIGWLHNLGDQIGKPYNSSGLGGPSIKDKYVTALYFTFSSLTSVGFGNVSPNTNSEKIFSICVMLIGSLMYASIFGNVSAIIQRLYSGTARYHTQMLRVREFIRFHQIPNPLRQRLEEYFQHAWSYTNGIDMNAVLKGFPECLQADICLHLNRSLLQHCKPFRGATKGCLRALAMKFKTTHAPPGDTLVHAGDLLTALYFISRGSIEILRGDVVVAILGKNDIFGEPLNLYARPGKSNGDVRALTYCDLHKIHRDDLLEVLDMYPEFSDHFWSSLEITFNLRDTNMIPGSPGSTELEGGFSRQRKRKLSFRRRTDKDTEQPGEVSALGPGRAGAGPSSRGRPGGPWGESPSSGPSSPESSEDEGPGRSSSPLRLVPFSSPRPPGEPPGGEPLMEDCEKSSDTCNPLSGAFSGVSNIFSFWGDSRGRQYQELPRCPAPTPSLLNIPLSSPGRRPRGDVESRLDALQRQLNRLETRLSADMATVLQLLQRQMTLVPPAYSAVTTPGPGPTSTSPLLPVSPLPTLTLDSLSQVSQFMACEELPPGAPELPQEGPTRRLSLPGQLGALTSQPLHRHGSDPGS
Chain of DNA gyrase subunit A/DNA gyrase subunit B (P9WG45 whole entry): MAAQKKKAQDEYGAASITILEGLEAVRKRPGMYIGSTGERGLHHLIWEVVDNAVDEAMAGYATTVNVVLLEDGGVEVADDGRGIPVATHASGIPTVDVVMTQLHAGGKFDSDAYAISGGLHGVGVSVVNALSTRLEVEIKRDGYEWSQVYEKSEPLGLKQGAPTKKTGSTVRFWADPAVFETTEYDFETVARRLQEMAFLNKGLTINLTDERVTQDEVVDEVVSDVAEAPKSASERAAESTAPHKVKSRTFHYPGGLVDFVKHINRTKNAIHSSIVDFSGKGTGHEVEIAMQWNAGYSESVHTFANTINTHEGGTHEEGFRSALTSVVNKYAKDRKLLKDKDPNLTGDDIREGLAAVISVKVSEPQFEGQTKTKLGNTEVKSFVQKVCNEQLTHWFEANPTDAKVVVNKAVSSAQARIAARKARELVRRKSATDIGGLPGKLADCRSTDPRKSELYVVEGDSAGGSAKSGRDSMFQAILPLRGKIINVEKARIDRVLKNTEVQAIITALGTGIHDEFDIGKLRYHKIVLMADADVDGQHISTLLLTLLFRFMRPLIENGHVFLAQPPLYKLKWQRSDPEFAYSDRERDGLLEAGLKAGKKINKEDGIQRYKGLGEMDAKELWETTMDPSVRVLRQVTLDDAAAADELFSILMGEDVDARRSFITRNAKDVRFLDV
Chain of DNA gyrase subunit A/DNA gyrase subunit B (P9WG47 whole entry): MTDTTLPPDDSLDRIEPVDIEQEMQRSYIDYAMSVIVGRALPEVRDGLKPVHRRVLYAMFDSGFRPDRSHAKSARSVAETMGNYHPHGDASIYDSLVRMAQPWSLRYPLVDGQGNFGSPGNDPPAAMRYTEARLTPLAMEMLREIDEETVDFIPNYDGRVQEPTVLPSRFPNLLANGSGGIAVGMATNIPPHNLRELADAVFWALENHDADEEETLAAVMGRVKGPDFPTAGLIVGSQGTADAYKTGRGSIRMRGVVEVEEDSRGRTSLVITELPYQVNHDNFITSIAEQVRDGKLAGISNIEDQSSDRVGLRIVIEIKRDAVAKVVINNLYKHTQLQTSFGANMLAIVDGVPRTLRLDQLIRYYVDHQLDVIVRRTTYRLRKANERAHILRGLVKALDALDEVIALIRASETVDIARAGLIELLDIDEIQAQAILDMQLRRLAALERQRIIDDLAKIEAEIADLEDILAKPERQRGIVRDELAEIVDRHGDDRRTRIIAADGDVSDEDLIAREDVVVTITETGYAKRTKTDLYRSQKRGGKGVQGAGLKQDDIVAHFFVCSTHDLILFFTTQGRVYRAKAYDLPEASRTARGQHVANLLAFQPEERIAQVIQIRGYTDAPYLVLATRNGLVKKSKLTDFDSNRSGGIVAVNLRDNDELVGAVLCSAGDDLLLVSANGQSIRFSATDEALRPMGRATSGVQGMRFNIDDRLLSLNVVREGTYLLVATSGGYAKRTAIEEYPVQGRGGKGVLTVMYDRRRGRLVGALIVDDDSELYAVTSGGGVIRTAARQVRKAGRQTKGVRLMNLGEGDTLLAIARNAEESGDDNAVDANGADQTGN

Row | SMILES | MIC [1] | also measured
1 | O=C1COc2ccc(CNC3CCN(CCn4c(=O)ccc5ccc(Oc6ccon6)nc54)CC3)nc2N1 | 0.25 µM (≈ 0.129 µg/mL) | –
2 | COc1ccc2ccc(=O)n(CCN3CCC(NCc4ccc5c(n4)NC(=O)CO5)CC3)c2n1 | 0.25 µM (≈ 0.116 µg/mL) | IC50 [2]: 23000 nM
3 | NNC(=O)c1ccncc1 [ISONIAZID] | 0.06 µM (≈ 0.00823 µg/mL) | –
4 | Cc1ncc(CNC2CCN(CCn3c(=O)ccc4ncc(F)cc43)CC2)cc1Cl | 0.19 µM (≈ 0.0817 µg/mL) | IC50 [3]: 250 nM
5 | Cn1ccc(COc2cnc3ccc(=O)n(CCN4CCC(NCc5ccc6c(n5)NC(=O)CO6)CC4)c3c2)n1 | 0.25 µM (≈ 0.136 µg/mL) | –
6 | O=C1COc2ccc(CNC3CCN(CCn4c(=O)ccc5ncc(OCc6cccnn6)cc54)CC3)nc2N1 | 1 µM (≈ 0.543 µg/mL) | –
7 | O=C1COc2ccc(CNC3CCN(CCn4c(=O)ccc5ncc(Oc6cccnc6)cc54)CC3)nc2N1 | 0.06 µM (≈ 0.0317 µg/mL) | permeability [4]: permeable; solubility [5]: 665 µM (≈ 351 µg/mL)
8 | O=C1COc2ccc(CNC3CCN(CCn4c(=O)ccc5ccc(Oc6cncnc6)nc54)CC3)nc2N1 | 0.25 µM (≈ 0.132 µg/mL) | IC50 [3]: 173 nM; IC50 [2]: > 224000 nM
9 | NS(=O)(=O)c1ccc(Oc2cnc3ccc(=O)n(CCN4CCC(c5nc6cc(Cl)ccc6[nH]5)CC4)c3c2)cc1 | 0.19 µM (≈ 0.11 µg/mL) | permeability [4]: impermeable
10 | COc1cnc2ccc(=O)n(CCN3CCC(c4nc5cc(Cl)ccc5[nH]4)CC3)c2c1 | 0.25 µM (≈ 0.109 µg/mL) | –
11 | O=C(O)c1cn(C2CC2)c2cc(N3CCNCC3)c(F)cc2c1=O [CIPROFLOXACIN] | 0.5 µM (≈ 0.166 µg/mL) | –
12 | COc1c(N2C[C@@H]3CCCN[C@@H]3C2)c(F)cc2c(=O)c(C(=O)O)cn(C3CC3)c12 [MOXIFLOXACIN] | 0.13 µM (≈ 0.0522 µg/mL) | –
13 | O=C1COc2ccc(CNC3CCN(CCn4c(=O)ccc5ncc(Oc6ccon6)cc54)CC3)nc2N1 | 0.25 µM (≈ 0.129 µg/mL) | permeability [4]: permeable; solubility [5]: 665 µM (≈ 344 µg/mL)
14 | O=C1COc2ccc(CNC3CCN(CCn4c(=O)ccc5ncc(OCc6ccccn6)cc54)CC3)nc2N1 | 0.5 µM (≈ 0.271 µg/mL) | –
15 | O=C1COc2ccc(CN[C@@H]3CCN(CCn4c(=O)ccc5ncc(Oc6ccon6)cc54)C[C@@H]3F)nc2N1 | 0.25 µM (≈ 0.134 µg/mL) | permeability [4]: permeable; solubility [5]: 665 µM (≈ 356 µg/mL)
16 | O=C1COc2ccc(CN[C@@H]3CCN(CCn4c(=O)ccc5ncc(Oc6cccnc6)cc54)C[C@@H]3F)nc2N1 | 0.25 µM (≈ 0.136 µg/mL) | IC50 [3]: 800 nM; permeability [4]: permeable; Activity [6]: Dose-dependent effect; LCK [7]: >1; LCK [8]: 1; solubility [5]: 665 µM (≈ 363 µg/mL)
17 | O=C1COc2ccc(CNC3CCN(CCn4c(=O)ccc5ccc(Cl)nc54)CC3)nc2N1 | 0.19 µM (≈ 0.0891 µg/mL) | IC50 [3]: 110 nM
18 | O=C1COc2ccc(CNC3CCN(CCn4c(=O)ccc5ncc(Oc6cncc(F)c6)cc54)CC3)nc2N1 | 0.25 µM (≈ 0.136 µg/mL) | –
19 | O=C1COc2ccc(CNC3CCN(CCn4c(=O)ccc5ccc(Oc6cccnc6)nc54)CC3)nc2N1 | 0.06 µM (≈ 0.0317 µg/mL) | IC50 [3]: 104 nM
20 | Cc1cc2[nH]c(C3CCN(CCn4c(=O)ccc5ncc(Oc6ccc(S(N)(=O)=O)cc6)cc54)CC3)nc2cc1C#N | 0.25 µM (≈ 0.146 µg/mL) | IC50 [2]: > 33000 nM
21 | NS(=O)(=O)c1ccc(Oc2ccc3ccc(=O)n(CCN4CCC(NCc5ccc6c(n5)NC(=O)CO6)CC4)c3n2)cc1 | 0.03 µM (≈ 0.0182 µg/mL) | IC50 [2]: > 100000 nM; permeability [4]: impermeable
22 | Cc1ncc(CNC2CCN(CCn3c(=O)ccc4ncc(Oc5ccc(S(N)(=O)=O)cc5)cc43)CC2)cc1Cl | 0.06 µM (≈ 0.035 µg/mL) | IC50 [2]: 82000 nM
23 | O=C1COc2ccc(CNC3CCN(CCn4c(=O)ccc5ncc(O[C@H]6CCOC6)cc54)CC3)nc2N1 | 0.5 µM (≈ 0.26 µg/mL) | –
24 | O=C1COc2ccc(CNC3CCN(CCn4c(=O)ccc5ncc(O[C@@H]6CCOC6)cc54)CC3)nc2N1 | 0.25 µM (≈ 0.13 µg/mL) | –
25 | Cc1ncc(CNC2CCN(CCn3c(=O)ccc4ncc(Oc5ccc(S(N)(=O)=O)cc5)cc43)CC2)cc1C#N | 0.06 µM (≈ 0.0344 µg/mL) | IC50 [2]: > 100000 nM
